The record followed here is PMC8329121 (Journal of Neuroimmune Pharmacology, 2021).

Assay [1] deals with T1, E2C-I159C/H547A (C90A/C306A/I159C/H547A) (Homo sapiens, UniProt Q01959, C306A/C90A/H547A/I159C).
T1 construct: expressed in transfected cells; host or cells: HEK293 cells, transient, pcDNA3.1+
T1 sequence (Q01959 1-620 C90A/I159C/C306A/H547A): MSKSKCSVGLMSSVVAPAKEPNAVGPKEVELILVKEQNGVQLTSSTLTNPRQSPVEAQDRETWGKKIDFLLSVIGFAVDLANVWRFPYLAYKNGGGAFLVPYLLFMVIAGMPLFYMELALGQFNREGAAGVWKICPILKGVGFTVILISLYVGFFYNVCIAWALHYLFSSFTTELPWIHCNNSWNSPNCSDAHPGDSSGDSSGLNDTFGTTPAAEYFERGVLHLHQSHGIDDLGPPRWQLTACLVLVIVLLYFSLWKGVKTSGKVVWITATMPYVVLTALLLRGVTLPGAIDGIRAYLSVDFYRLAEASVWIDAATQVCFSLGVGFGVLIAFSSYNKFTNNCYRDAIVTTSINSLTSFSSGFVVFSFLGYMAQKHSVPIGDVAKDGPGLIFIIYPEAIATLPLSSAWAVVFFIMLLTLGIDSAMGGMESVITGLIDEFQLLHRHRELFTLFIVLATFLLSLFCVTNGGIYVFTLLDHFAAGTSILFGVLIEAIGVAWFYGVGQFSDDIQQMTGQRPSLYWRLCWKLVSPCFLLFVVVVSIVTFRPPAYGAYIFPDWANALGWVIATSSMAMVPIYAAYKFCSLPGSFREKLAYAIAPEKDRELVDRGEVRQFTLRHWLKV
Description: MTSET assay, [3H]DA uptake in HEK293 cells. The assay is classed as cell-based. The settings on record: 1 mM MTSET. The source says:
(§1) All mutants on hDAT were generated based on the predictions made using our computational model, as described previously using site-directed mutagenesis based on the wild-type hDAT (WT hDAT) sequence (NCBI, cDNA clone MGC: 164,608 IMAGE: 40,146,999) (Quizon et al. [2016]). The combination of hDAT mutations on Asp206 and His547 (Aspartic acid 206 to leucine and histidine 547 to alanine, D206L/H547A) were predicted to eliminate two hydrogen bonds between Tat and hDAT. In addition, the combination of mutations on Tyr88, Asp206, and His547 (tyrosine88 to phenylalanine and aspartic acid 206 to leucine and histidine 547 to alanine, Y88F/D206L/H547A) were predicted to eliminate three hydrogen bonds from the Tat-hDAT complex. Two extracellular cysteine90 and cysteine306 residues on WT hDAT were mutated to alanine as E2C hDAT (C90A/C306A hDAT), rendering the E2C hDAT MTSET-insensitive background (Pedersen et al. [2014]). A triple mutation of the two cysteine90 and 306 residues to alanine and […] to cysteine on WT hDAT was generated as E2C-I159C hDAT (C90A/C306A/I159C) for MTSET-sensitive construct. A combination of C90A/C306A/H547A was generated as E2C/H547A hDAT for MTSET-insensitive control for H547A. To determine whether H547A-enhanced DA transport is mediated by changing transporter conformation, two combinations of C90A/C306A/I159C/H547A and C90A/C306A/I159A/H547A were generated as E2C-I159C/H547A and E2C-I159A/H547A for positive and negative controls for MTSET sensitive background, respectively. Synthetic cDNA encoding hDAT subcloned into pcDNA3.1+ (provided by Dr. Haley E Melikian, University of Massachusetts) was used as a template to generate mutants using site-directed mutagenesis performed by GENEWIZ (South Plainfield, NJ). DNA sequencing was also performed by GENEWIZ to confirm the sequences of the mutant constructs. Plasmid DNA were propagated and purified using the Qiagen Hi-speed maxi prep plasmid DNA isolation kit (Qiagen, Valencia, CA, USA).
(§2) This assay was performed based on the previous report with minor modifications (Loland et al. [2004], [2008]). First, we generated five WT hDAT based plasmid construct for MTSET-insensitive or sensitive background as we described above. HEK293 cells were grown in poly-d-lysine coated plates at a density of 1 × 10^5 cells/cm^2 were transfected with different E2C- associated hDAT background constructs: E2C hDAT, E2C-I159C hDAT, E2C/H547A hDAT, E2C-I159C/H547A or E2C-I159A/H547A. Twenty-four hours after the transfection, cells were washed twice with 1× KRH buffer, and preincubated with or without the presence of 10 µM nomifensine (for non-specific uptake) and MTSET for 10 min at room temperature. MTSET at 1 mM final concentration was chosen based on a pilot study on optimizing MTSET concentrations (0.1, 0.5 or 1.0 mM). […] Because MTSET is easily hydrolyzed in solution, the amount needed for a 10 × stock was weighed out and dissolved in 1 × KRH buffer just right before adding to the assigned wells, for a 10-fold dilution (final concentration of 1 mM in final volume of 250 µl). […] Cells were immediately washed twice with ice-cold 1 × KRH buffer to terminate the reaction and were lysed rapidly with the addition of 1 % SDS. Cell lysates were collected after incubation for 1 h at room temperature and radioactivity was determined the next day.

Assay [2] addresses T2, E2C-I159C hDAT (C90A/C306A/I159C) (Homo sapiens, UniProt Q01959, C306A/C90A/I159C).
T2 construct: expressed in transfected cells; host or cells: HEK293 cells, transient, pcDNA3.1+
T2 sequence (Q01959 1-620 C90A/I159C/C306A): T1 sequence (Q01959 1-620 C90A/I159C/C306A/H547A) with A547H
Description: MTSET assay, [3H]DA uptake in HEK293 cells. The assay is classed as cell-based.
Source text: as §1, §2

Numbering of substitutions follows the chain as printed.

As to `C[N+](C)(C)CCSS(C)(=O)=O` [MTSET, [2-(trimethylammonium)ethyl]-methanethiosulfonate], in assay [1] (Fig. 8b), the “further inhibition of [3H]DA uptake compared to E2C-I159C” value is given as 34%. Further, in assay [1] (Fig. 8b), the “inhibition of DA uptake relative to E2C” value was found to be 65%. Besides, the “[3H]DA uptake in the presence of MTSET” value was determined as 30.4 ± 3.52 in assay [1] (HEK293, Fig. 8b) and 46.0 ± 6.0 in assay [2] (1 mM MTSET, HEK293, Fig. 8b). Further, in assay [2] (1 mM MTSET, 10 min, HEK293, pilot study Fig. 8a), the “inhibition of [3H]DA uptake relative to no MTSET addition” value came out at 55%. Moreover, in assay [2] (MTSET 0.1, 0.5, 1.0 mM, pilot study Fig. 8a), the “effect on [3H]DA uptake” value was “concentration-dependently inhibited”.
